Results published in US11963962B2, “Platelet count-agnostic methods of treating myelofibrosis” (Sierra Oncology, Inc., priority 2018, dated 2024).

Tested on: myelofibrosis
Assay: SIMPLIFY-1 Phase 3 trial: total symptom score (TSS) response at week 24
Format: in vivo, human
Conditions: for TSS Responders / TSS proportion (Wilson 95% CI) / TSS Absolute risk difference (Newcombe 95% CI): SIMPLIFY 1, 24 weeks; for TSS Absolute risk difference (Newcombe 95% CI): MMB vs Control; for TSS response rate: SIMPLIFY 1, week 24
Method: In the SIMPLIFY-1 trial (NCT01969838), the efficacy and safety of MMB versus ruxolitinib (RUX) was studied in patients with myelofibrosis who were naïve to treatment with a JAK inhibitor and a platelet count of ≥50×10^9/L. Patients (N=432) with high risk or intermediate-2 risk or symptomatic intermediate-1 risk myelofibrosis received 24 weeks of treatment with 200 mg MMB once daily or 20 mg RUX twice a day (or per label), after which all patients could receive open-label momelotinib. […] The primary endpoint was a reduction by at least 35% in the spleen volume at 24 weeks compared with baseline.
FIG. 8A: SIMPLIFY-1 study of MMB in a first line population previously untreated with JAKi. For SIMPLIFY-1, the goal was non-inferiority over ruxolitinib (RUX) (MMB: N=215 subjects, and RUX: N=217 subjects). FIG. 8B: SIMPLIFY-2 study of second line population of anemic or thrombocytopenic subjects previously treated with RUX (red blood cell (RBC) transfusions on RUX=64%. RUX dose adjustment for: thrombocytopenia=21%; anemia/hematoma=35%). For SIMPLIFY-2, the goal was superiority over best available treatment (BAT) (MMB: N=104 subjects, and BAT: N=52 subjects). In both SIMPLIFY-1 and SIMPLIFY: Primary endpoint: >=35% reduction in spleen volume at 24 weeks. Secondary endpoints: Total symptom score (TSS) response at 24 weeks. Effects on RBC transfusion requirements.
The SIMPLIFY 1 clinical trial data was reanalyzed for subgroups of subjects having particular baseline platelet counts in the MMB versus RUX arms of the study.
Patient data was analyzed according to the following baseline platelet count (PLT) subgroups and in particular according to the threshold PLT of 150×10^9/L: 1) PLT<50×10^9/L; 2) 50×10^9/L≤PLT<100×10^9/L; 3) 100×10^9/L≤PLT<150×10^9/L. The reanalyzed data is presented in Table 13 (SIMPLIFY 1). Selected data is also illustrated in the following figures.

Compound: Cl.N#CCNC(=O)c1ccc(-c2ccnc(Nc3ccc(N4CCOCC4)cc3)n2)cc1 [MMB, N-(cyanomethyl)-4-(2-(4-morpholinophenylamino)pyrimidin-4-yl)benzamide]
- TSS Responders (50 ≤ PLT < 100 ×10^9/L): 6
- TSS proportion (Wilson 95% CI) (50 ≤ PLT < 100 ×10^9/L): 0.33
- TSS Absolute risk difference (Newcombe 95% CI) (50 ≤ PLT < 100 ×10^9/L): 0.12
- TSS Responders (100 ≤ PLT < 150 ×10^9/L): 7
- TSS proportion (Wilson 95% CI) (100 ≤ PLT < 150 ×10^9/L): 0.24
- TSS Absolute risk difference (Newcombe 95% CI) (100 ≤ PLT < 150 ×10^9/L): −0.15
- TSS Responders (ITT): 60
- TSS proportion (Wilson 95% CI) (ITT): 0.28
- TSS Absolute risk difference (Newcombe 95% CI) (ITT): −0.13
- TSS response rate (ITT, all patients): 28%
- TSS response rate (ITT, platelets 50-100 (subgroup 2)): 33%
- TSS response rate (ITT, platelets 100-150 (subgroup 3)): 24%
- TSS response rate (baseline TSS ≥ 6, all patients): 33%
- TSS response rate (baseline TSS ≥ 6, platelets 50-100 (subgroup 2)): 36%
- TSS response rate (baseline TSS ≥ 6, platelets 100-150 (subgroup 3)): 32%
- TSS response rate (baseline TSS ≥ 10, all patients): 33%
- TSS response rate (baseline TSS ≥ 10, platelets 50-100 (subgroup 2)): 36%
- TSS response rate (baseline TSS ≥ 10, platelets 100-150 (subgroup 3)): 32%
- Total Symptom Score (TSS) response (SIMPLIFY-1, overall): 28.4%
- TSS Noninferior Proportion Difference (SIMPLIFY-1, MMB vs RUX): 0.00 (−0.08, 0.08)
